The experiment concerns the target T1, Ba/F3 SLC-ROS cells (Homo sapiens, UniProt P08922).
T1 construct: SLC-ROS-S (SLC-ROS) was cloned from cDNA made from HCC78 cells; fused on or other part: GFP is co-expressed from an IRES in pMIG and is not fused; O95436 (Sodium-dependent phosphate transport protein 2B)
Nature of the experiment: Apoptosis induction (Annexin V / 7-AAD), Ba/F3 SLC-ROS. In kind it is cell-based. The conditions noted are these: 15 nM, 48 hours. The method, then: FIG. 5A is a set of three bar graphs depicting the induction of apoptosis in Ba/F3 FIG-ROS, Ba/F3 SLC-ROS and Ba/F3 ALK F1174L cells after 48 hours of treatment with the indicated doses of the indicated compounds. The number of cells that were Annexin V and 7-AAD positive after inhibitor treatment was normalized to number of cells staining positive with these markers with vehicle treatment (basal). A minimum of 2000 cells were counted per condition. Rate of apoptosis is shown as fold over basal. Basal apoptosis in Ba/F3 FIG-ROS, Ba/F3 SLC-ROS and Ba/F3 ALK F1174 cells was 3.6%, 2.8% and 1.2% respectively.

Each structure is given as a SMILES string.

T1 sequence (P08922 whole entry, change not shown, the tested form may be a part): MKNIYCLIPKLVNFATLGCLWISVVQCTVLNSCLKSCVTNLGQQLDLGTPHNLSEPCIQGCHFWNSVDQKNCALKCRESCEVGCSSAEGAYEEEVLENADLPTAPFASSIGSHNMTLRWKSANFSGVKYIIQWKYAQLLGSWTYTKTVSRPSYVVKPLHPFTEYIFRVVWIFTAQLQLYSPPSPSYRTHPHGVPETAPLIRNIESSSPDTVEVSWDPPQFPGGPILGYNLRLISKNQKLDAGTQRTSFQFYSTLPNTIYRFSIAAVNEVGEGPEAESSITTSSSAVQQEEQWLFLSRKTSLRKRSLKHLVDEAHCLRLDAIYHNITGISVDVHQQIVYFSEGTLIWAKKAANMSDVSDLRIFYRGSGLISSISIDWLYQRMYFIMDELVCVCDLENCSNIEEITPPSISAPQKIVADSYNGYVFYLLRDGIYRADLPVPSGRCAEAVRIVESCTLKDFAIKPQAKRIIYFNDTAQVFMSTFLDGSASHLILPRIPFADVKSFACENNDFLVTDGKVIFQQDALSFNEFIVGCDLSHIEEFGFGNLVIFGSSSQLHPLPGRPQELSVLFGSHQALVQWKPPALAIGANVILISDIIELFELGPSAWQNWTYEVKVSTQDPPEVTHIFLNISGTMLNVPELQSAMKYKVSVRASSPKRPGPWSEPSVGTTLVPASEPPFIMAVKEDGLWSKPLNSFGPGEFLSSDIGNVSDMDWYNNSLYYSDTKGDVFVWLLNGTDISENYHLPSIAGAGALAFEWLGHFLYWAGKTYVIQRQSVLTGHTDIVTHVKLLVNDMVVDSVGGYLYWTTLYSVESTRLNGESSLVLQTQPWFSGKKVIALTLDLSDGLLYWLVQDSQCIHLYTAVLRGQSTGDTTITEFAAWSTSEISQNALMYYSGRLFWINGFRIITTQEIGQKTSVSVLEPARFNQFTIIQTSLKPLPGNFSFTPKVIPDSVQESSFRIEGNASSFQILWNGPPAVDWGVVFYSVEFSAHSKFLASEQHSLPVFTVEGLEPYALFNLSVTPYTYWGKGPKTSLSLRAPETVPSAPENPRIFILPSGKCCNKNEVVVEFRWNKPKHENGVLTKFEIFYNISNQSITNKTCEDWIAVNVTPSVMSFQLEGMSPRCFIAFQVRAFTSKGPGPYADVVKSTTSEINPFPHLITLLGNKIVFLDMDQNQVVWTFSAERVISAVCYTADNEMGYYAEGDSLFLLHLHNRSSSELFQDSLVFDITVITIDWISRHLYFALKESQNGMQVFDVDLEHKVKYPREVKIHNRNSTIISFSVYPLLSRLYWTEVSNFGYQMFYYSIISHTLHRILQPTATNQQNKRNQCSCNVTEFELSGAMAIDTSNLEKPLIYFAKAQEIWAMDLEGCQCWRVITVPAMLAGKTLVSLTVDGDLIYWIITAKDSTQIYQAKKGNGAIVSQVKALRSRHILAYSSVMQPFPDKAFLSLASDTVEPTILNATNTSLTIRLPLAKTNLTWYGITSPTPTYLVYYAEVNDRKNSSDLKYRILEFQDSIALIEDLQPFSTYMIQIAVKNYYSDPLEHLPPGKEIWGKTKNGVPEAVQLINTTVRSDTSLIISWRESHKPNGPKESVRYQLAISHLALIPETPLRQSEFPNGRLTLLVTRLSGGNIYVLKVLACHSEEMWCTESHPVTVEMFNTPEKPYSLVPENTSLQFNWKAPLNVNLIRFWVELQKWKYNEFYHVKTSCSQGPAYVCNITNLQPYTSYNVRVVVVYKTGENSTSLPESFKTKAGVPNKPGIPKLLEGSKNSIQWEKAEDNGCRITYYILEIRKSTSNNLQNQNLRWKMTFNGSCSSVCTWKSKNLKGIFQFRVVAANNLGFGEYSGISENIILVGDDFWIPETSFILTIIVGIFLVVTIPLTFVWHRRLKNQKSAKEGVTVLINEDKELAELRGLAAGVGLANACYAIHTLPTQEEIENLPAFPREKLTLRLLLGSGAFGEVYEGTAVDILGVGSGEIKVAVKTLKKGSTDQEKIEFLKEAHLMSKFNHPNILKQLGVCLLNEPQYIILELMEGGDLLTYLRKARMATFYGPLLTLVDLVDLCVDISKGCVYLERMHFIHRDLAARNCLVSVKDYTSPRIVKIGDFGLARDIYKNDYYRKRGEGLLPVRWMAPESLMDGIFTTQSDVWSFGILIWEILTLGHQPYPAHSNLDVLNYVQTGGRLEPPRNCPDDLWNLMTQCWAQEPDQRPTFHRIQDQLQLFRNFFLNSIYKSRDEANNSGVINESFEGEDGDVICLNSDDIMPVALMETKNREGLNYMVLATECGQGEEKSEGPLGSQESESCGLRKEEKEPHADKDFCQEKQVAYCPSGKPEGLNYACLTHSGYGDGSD

As for `COc1cc2c(Oc3ccc(NC(=O)C4(C(=O)Nc5ccc(F)cc5)CC4)cc3F)ccnc2cc1OCCCN1CCOCC1` [foretinib, N1′-[3-fluoro-4-[[6-methoxy-7-(3-morpholinopropoxy)-4-quinolyl]oxy]phenyl]-N1-(4-fluorophenyl)cyclopropane-1,1-dicarboxamide], the apoptosis induction result is recorded as “induced apoptosis”.

Source of the values: patent publication US20140243332A1, “METHODS OF TREATING CANCERS CHARACTERIZED BY ABERRENT ROS1 ACTIVITY” (Oregon Health & Science University, priority 2013, published 2014).
